From patent US11452724B2, “Methods for treating amyotrophic lateral sclerosis” (The Regents of the University of Michigan, priority 2018, dated 2022)
Read-outs that look alike come from different tables or passages of the source.

Key:
peripheral NK cells [1] = conditions: human patients; van Vollenhoven et al. 2019, van Gurp et al. 2008; cited from earlier work
NK cells, CD4 T cells = conditions: cited from earlier work
NK92 NK cell line [2] = assay: Intracellular granzyme B and perforin levels in NK cells by flow cytometry; type: cell-based
Description: (§1) FIG. 3A-E: Tofacitinib reduces NK cell activity and cytotoxicity. (A) NK cells (NK92 cell line) were treated with tofacitinib either after 30 ng/ml of IL-15 activation overnight (ON) or before IL-15 activation (2-hours) to test its efficacy in inhibiting already activated NK cells (overnight stimulation) or preventing their activation (2-hour stimulation). (B) NK cells cultured Overnight or 2 Hrs with IL-15 were lysed and cytokine expression assessed using qPCR. IL-10, TNF-α, and IFN-γ gene expression was assessed. (C) Intracellular granzyme B and perforin were levels were assessed in NK cells in vitro using flow cytometry. Fluorescent intensity was plotted for unstimulated NK cells in serum free conditions (negative control; blue), serum-stimulated NK cells (positive control; red), IL-15 stimulated NK cells (30 ng/ml IL-15; orange), or tofacitinib treated NK cells (30 ng/ml IL-15+ tofacitinib; green). (D) NK cell migration was assessed using a transwell assay. NK92 cells were fluorescently labeled and placed on one side of a well separated by a porous membrane. A chemoattractant (serum or CCL13) was placed on the other side of the transwell and after 3 hours the fluorescent intensity in the chemoattractant half of the well was assessed. (E) NK cytotoxicity was measured using a K562 co-culture assay. […] Cells were then stained with a viability dye and analyzed using flow cytometry. […]

NK92 NK cell line [3] = assay: Cytokine gene expression by qPCR in IL-15 stimulated NK92 cells; type: cell-based; conditions: 30 ng/ml IL-15, tofacitinib treatment (Overnight IL-15) or pre-treatment (2 Hr IL-15)
Description: as §1, with “Fluorescent intensity was plotted for unstimulated NK cells in serum free conditions (negative control; blue), serum-stimulated NK cells (positive control; red), IL-15 stimulated NK cells (30 ng/ml IL-15; orange), or tofacitinib treated NK cells (30 ng/ml IL-15+ tofacitinib; green).” left out, “NK92 cells were fluorescently labeled and placed on one side of a well separated by a porous membrane.” left out
To test this possibility, experiments were conducted that utilized the well-characterized NK92 NK cell line to assess tofacitinib's impact on NK cell activation and cytotoxicity in vitro. […] First, NK cells from these two conditions were collected, lysed, and cytokine expression gene expression was assessed using qPCR (FIG. 3B).

[4] = tested on: NK92 NK cells co-cultured with K562 cancer cells; assay: NK cytotoxicity K562 co-culture assay; type: cell-based; conditions: 4:1 NK:K562 ratio overnight; even following overnight IL-15 stimulation
Description: as §1, with “Fluorescent intensity was plotted for unstimulated NK cells in serum free conditions (negative control; blue), serum-stimulated NK cells (positive control; red), IL-15 stimulated NK cells (30 ng/ml IL-15; orange), or tofacitinib treated NK cells (30 ng/ml IL-15+ tofacitinib; green).” left out, “NK92 cells were fluorescently labeled and placed on one side of a well separated by a porous membrane.” left out
(§2) Experiments were conducted to assess the impact on NK cell migration following tofacitinib treatment (FIG. 3D). […] NK cell chemoattractants (serum or CCL13) were then placed in the other half of the well and the number of NK cells which traversed the membrane were measured. […] Cells were collected, stained with a viability dye, and analyzed using flow cytometry. […]

NK92 NK cells = assay: NK cell migration transwell assay; type: cell-based; conditions: IL-15 stimulated NK92 cells, 3 hours
Description: as §1, with “Fluorescent intensity was plotted for unstimulated NK cells in serum free conditions (negative control; blue), serum-stimulated NK cells (positive control; red), IL-15 stimulated NK cells (30 ng/ml IL-15; orange), or tofacitinib treated NK cells (30 ng/ml IL-15+ tofacitinib; green).” left out, “NK92 cells were fluorescently labeled and placed on one side of a well separated by a porous membrane.” left out
as §2

peripheral NK cells [5] = conditions: mice; Shimaoka et al. 2017; cited from earlier work

## C[C@@H]1CCN(C(=O)CC#N)C[C@@H]1N(C)c1ncnc2[nH]ccc12 [tofacitinib]
Peripheral NK cells [1]
  peripheral NK cells: capable of reducing
NK cells, CD4 T cells; Hodge et al. 2016, van Gurp et al. 2008
  NK cell levels: reduced in a dose dependent manner
NK cells, CD4 T cells; van Gurp et al. 2008
  CD4 T cell levels: maintaining
NK92 NK cell line [2]; NK cells stimulated with IL-15, particularly when treated with tofacitinib prior to IL-15 stimulation
  intracellular perforin levels: reduced
NK92 NK cell line [2]; NK cells stimulated with IL-15 overnight or for two hours, flow cytometry
  intracellular granzyme B levels: modest effect
NK92 NK cell line [3]
  IFN-γ gene expression: significantly reduced
  IL-10 gene expression: significantly reduced
[4]
  NK cell-mediated killing (K562 survival): ameliorated
NK92 NK cells; CCL13 as chemoattractant
  NK cell migration in response to CCL13: more robust suppression
NK92 NK cells; serum as chemoattractant
  NK cell migration in response to serum: modest reduction
Peripheral NK cells [5]
  peripheral NK cells: capable of reducing
